Legend:
hématies = experiment: Erythrocyte deformability: filtration rate of erythrocyte suspension and plasma (Schmid-Schönbein technique) in hyperlipidemic monkeys; format: in vivo, singe; conditions: monkeys on hyperlipidic diet, 20 mg/kg per os per day for 8 months, mean, 5 µ filter, 50 mm water pressure
From the text: La déformabilité des hématies a été mesurée selon la technique de SCHMID-SCHONBEIN et al., Blut (1973), 26, 369-379, par filtration (diamètre des pores du filtre : 5µ) sous une pression constante de 50 mm d'eau, d'une suspension d'hématies amenée à un hématocrite de 10% par dilution dans un plasma autologue. La phase de suspension est également filtrée selon la même technique. On peut apprécier ainsi l'intensité de certaines maladies car le taux de filtration de la suspension d'hématies et/ou de la phase de plasma est modifié par les maladies du métabolisme telles que le diabète et l'hyperlipidémie.
Le taux de filtration des hématies a été déterminé in vivo chez le singe rendu hyperlipidémique après absorption d'un régime gras. Les composés à tester ont été administrés per os à la dose quotidienne de 20 mg/kg pendant 8 mois à des lots de singes : un lot recevant un régime normal, un lot recevant un régime gras, les autres lots recevant le régime gras et un des composés à tester. Les résultats donnés dans le tableau ci-après sont exprimés sous forme d'une moyenne et représentent la vitesse de filtration des hématies ou du plasma en µl/s. La signification statistique des résultats est très bonne (p <( 0,001).

[1] = Acute toxicity (LD50), method of Litchfield et al.; conditions: in vivo, ip; mouse, intraperitoneal route; read-out: DL-50 I.P. souris
Procedure: La toxicité a été déterminée chez la souris par voie intrapéritonéale selon la méthode de J.T. LITCHFIELD et al., J. Pharmacol. Exptl. Therap. (1949), 96, 99. La DL-50 I.P. souris des produits III et IV est de 750 mg/kg. Les produits de formule (I) ne sont donc pas toxiques.

patients = experiment: Clinical trial in hyperlipidemic and hypertensive patients; format: in vivo; conditions: 21 days
Procedure: On a résumé enfin les résultats des essais cliniques qui ont été entrepris avec le composé III pendant 21 jours sur 65 patients (30 patients étant hyperlipidiques et les 35 autres patients souffrant d'hypertension artérielle), un lot de patients recevant 3 comprimés ou 3 glossettes par jour renfermant chacun 10 mg de composé III, un autre lot recevant une injection quotidienne de 10 mg de composé III. La tolérance de ce produit s'est révélée excellente puisque la condition de 51 patients (c'est-à-dire 78,4%) a été considérablement améliorée.

[2] = of 65 patients (30 hyperlipidemic, 35 arterial hypertension), 3 x 10 mg oral/sublingual or 10 mg injection per day

SMILES | Vitesse de filtration du plasma (hématies) | Vitesse de filtration des hématies (hématies; hematocrit 10%) | LD50 [1] [mg/kg] | tolérance (patients; 65 patients, 3 tablets or sublingual tablets of 10 mg per day, or one daily injection of 10 mg) | patients dont la condition a été considérablement améliorée (patients; [2]) | patients dont la condition a été considérablement améliorée (nombre) (patients; [2]) [patients]
C[C@@H]1O[C@@H](OC[C@H]2O[C@@H](Oc3cc4c(O)cc(O)cc4[o+]c3-c3ccc(O)c(O)c3)[C@H](O)[C@@H](O)[C@@H]2O)[C@H](O)[C@H](O)[C@H]1O [composé III, chlorurede 3-[6-0-(6-désoxy-α-L-mannopyranosyl)-β-D-glucopy-ranosyloxy]-3',4',5,7-tétrahydroxy-flavylium] | 55,92 ± 4,78 µl/s | 43,97 ± 2,30 µl/s | 750 | excellente | 78,4% | 51
COc1cc(OC)c2cc(O[C@@H]3O[C@H](CO[C@@H]4O[C@@H](C)[C@H](O)[C@@H](O)[C@H]4O)[C@@H](O)[C@H](O)[C@H]3O)c(-c3ccc(OC)c(OC)c3)[o+]c2c1 [composé IV, chlorurede 3-[6-0-(6-désoxy-α-L-mannopyranosyl)-β-D-glucopyranosyloxy]-3',4', 5,7-tétraméthoxy-flavylium] | – | – | 750 | – | – | –

— patent publication EP0019524A1, “Process for preparing flavilium derivatives, products obtained by the processus and their therapeutical application” (SOCIETE DE RECHERCHES INDUSTRIELLES SORI, priority 1979, dated 1980)
